Columns and labels:
[1] = target: T1, human PKCθ full length enzyme (Homo sapiens, UniProt Q04759); test: PKCθ IMAP Assay; type: biochemical; details: average value when one or more samples were tested; ATP 6 uM, PKCθ 1 nM
T1 construct: human PKCθ full length enzyme (Panvera Catalog No. P2996); purchased Panvera P2996
Procedure, shortened: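 IMAP fluorescence polarization after 20 min with binding beads measured phosphorylation of 100 nM 5FAM-peptide. Reactions held 1 nM full-length human PKCθ, 6 uM ATP, 5% DMSO and DTT-containing buffer, 25 min at room temperature. Compounds tested as 2:1 serial dilutions; controls lacked ATP or enzyme.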

PKCθ = PKCθ (Homo sapiens, UniProt Q04759); test: PKCθ Scintiplate Assay; type: biochemical; details: average value when one or more samples were tested
Experimental: This assay detects the phosphorylation of a biotinylated substrate by kinase utilizing radiolabeled ATP (ATP γ P33). The enzyme is either recombinant full length PKCθ (Panvera, P2996) or the purified recombinant active kinase domain of full length PKCθ (amino acids 362-706). The substrate in this assay is a biotinylated peptide with a sequence of biotin-[…]-CONH2. The assay buffer is composed of 100 mM Hepes, pH7.5, 2 mM MgCl2, 20 mM β-glycerophosphate and 0.008% TritonX 100. A reaction mixture of ATP, ATP γ P33 (PerkinElmer), DTT, lipid activator, and the enzyme is prepared in the assay buffer and added to a 96 well polypropylene plate. The compound (diluted in DMSO in a separate 96-well polypropylene plate) is added to the reaction mixture and incubated at room temperature. Following the incubation, the peptide substrate is added to the reaction mixture to initiate the enzymatic reaction. The reaction is terminated with the addition of a stop solution (10 mM EDTA, 0.2% TritonX100, and 100 mM NaHPO4) and transferred from the assay plate to a washed streptavidin-coated 96 well scintiplate (PerkinElmer). The scintiplate is incubated at room temperature, washed in PBS with 0.1% TritonX 100, and counted in the 1450 Microbeta Trilux (Wallac, Version 2.60). Counts are recorded for each well as corrected counts per minute (CCPM). The counts are considered corrected because they are adjusted according to a P33 normalization protocol, which corrects for efficiency and background differences between the instrument detectors (software version 4.40.01).

T1 sequence (Q04759 whole entry): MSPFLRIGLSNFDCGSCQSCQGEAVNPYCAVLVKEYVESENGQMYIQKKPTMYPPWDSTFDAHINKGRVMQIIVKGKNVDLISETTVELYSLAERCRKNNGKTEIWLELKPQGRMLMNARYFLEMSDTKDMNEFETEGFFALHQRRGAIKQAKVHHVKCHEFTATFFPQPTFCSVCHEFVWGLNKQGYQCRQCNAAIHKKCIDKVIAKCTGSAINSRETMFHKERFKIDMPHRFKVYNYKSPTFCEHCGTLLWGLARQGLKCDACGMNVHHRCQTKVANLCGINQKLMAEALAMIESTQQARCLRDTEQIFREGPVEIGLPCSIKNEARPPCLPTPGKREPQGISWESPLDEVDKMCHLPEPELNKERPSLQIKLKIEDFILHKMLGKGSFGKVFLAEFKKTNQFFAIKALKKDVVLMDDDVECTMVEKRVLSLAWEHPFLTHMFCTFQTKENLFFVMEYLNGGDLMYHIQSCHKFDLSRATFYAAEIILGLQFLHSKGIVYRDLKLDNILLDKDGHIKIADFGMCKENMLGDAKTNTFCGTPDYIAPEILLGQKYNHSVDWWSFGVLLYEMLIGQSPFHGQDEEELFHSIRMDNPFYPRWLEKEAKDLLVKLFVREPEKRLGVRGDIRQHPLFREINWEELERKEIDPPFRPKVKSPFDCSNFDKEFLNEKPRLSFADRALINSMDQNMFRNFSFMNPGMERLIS
Chain of PKCθ (Q04759 362-706 limits assumed): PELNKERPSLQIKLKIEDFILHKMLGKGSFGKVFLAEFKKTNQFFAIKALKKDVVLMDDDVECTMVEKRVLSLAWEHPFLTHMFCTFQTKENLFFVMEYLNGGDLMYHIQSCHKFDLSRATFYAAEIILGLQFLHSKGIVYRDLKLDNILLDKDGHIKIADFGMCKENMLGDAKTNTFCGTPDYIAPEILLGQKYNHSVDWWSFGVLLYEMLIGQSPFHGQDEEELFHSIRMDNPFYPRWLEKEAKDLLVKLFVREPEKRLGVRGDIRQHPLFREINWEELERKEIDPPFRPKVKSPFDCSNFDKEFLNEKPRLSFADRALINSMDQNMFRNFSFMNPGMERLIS

- melting point: > 260 °C
- IC50 [1]: 34 nM
- IC50 (PKCθ): 27 nM
SMILES: N#Cc1cnc2sc(-c3ccc(CN)cc3)cc2c1Nc1ccc2[nH]ccc2c1 [Compound 188, 2-[4-(aminomethyl)phenyl]-4-(1H-indol-5-ylamino)thieno[2,3-b]pyridine-5-carbonitrile]
